Drawing on patent US20240025906A1 (NEURON23, INC., priority 2022, published 2024), this text covers Kd and IC50 for 12 compounds.

For one experiment, the target named is T1, TYK2 JH2 (Homo sapiens, UniProt P29597).
T1 construct: purchased DiscoverX (KINOMEscan KdELECT service); host or cells: E. coli BL21-derived (T7 phage display) or HEK-293
The experiment is described as follows: TYK2 JH2 binding assay (KINOMEscan KdELECT competitive binding). The following applies: TYK2 JH2 domain, KINOMEscan KdELECT (Assay A); read-out: Biochemical TYK2_DiscoverX_JH2_BND_Kd. In short, it runs like this:
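Beads carrying a biotinylated ligand were mixed with tagged JH2 kinase and compound (11 points, 3-fold steps, 0.9% DMSO) and shaken 1 h at room temperature. After washing, kinase was released with 0.5 μM untagged ligand over 30 min and measured by qPCR to derive Kd.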

Experiment [1] deals with JAK1/TYK2 pSTAT5 (Tyr694/699) in THP-1 cell line. The experiment is described as follows: IFNa-stimulated JAK1/TYK2 pSTAT5 (Tyr694/699) inhibition cellular assay, AlphaLISA. The following applies: Homo sapiens; THP-1 cells, IFNa-stimulated, AlphaLISA (Assay B); read-out: Cellular_THP1_IFNa-pSTATS_TYK2. The experiment is classed as cell-based. In short, it runs like this:
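The readout is AlphaLISA signal at 615 nm for phospho-STAT5 in THP-1 lysates after IFNa stimulation (added at 100 ng/mL, 30 min, 37 °C). Cells had compound for 1 h beforehand across eight 6-fold concentrations up to 10000 nM final. IC50s are 4PL fits with bottom and Hill slope constrained.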
Background: In Alpha technology, singlet oxygen from a donor bead excites a nearby acceptor bead.

SMILES strings stand for the structures. Some results are limits rather than exact numbers.

T1 sequence (P29597 589-875 limits assumed): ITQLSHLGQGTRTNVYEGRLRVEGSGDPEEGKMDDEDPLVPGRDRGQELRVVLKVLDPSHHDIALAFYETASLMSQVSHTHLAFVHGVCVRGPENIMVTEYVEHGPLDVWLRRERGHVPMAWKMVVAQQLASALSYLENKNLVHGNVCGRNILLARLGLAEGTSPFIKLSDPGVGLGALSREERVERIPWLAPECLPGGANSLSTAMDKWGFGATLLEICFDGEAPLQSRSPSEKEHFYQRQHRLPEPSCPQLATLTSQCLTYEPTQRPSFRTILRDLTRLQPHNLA

Regarding `CNc1ncc(C#Cc2ccc(N3CCOCC3)cc2)c2cc(NC(=O)C3CC3)ncc12` [Example 624, N-(8-(methylamino)-5-((4-morpholinophenyl)ethynyl)-2,7-naphthyridin-3-yl)cyclopropanecarboxamide], the Kd on TYK2 JH2 was ≤ 100 nM. The IC50 in experiment [1] is ≤ 500 nM.

Consider `CNc1ncc(C#Cc2ccc3ncn(C4CC4)c3c2)c2cc(NC(=O)C3CC3)ncc12` [Example 625, N-(5-((1-cyclopropyl-1H-benzo[d]imidazol-6-yl)ethynyl)-8-(methylamino)-2,7-naphthyridin-3-yl)cyclopropanecarboxamide], for which the Kd at TYK2 JH2 is ≤ 100 nM. In experiment [1], the IC50 is ≤ 500 nM.

For the compound `CNc1ncc(C#Cc2ccn3ccnc3c2)c2cc(NC(=O)C3CC3)ncc12` [Example 626, N-(5-(imidazo[1,2-a]pyridin-7-ylethynyl)-8-(methylamino)-2,7-naphthyridin-3-yl)cyclopropanecarboxamide], the Kd at TYK2 JH2 is ≤ 100 nM. Further, in experiment [1], the IC50 was ≤ 500 nM.

Consider `CNc1ncc(C#Cc2ccc3nccnc3c2)c2cc(NC(=O)C3CC3)ncc12` [Example 627, N-(8-(methylamino)-5-(quinoxalin-6-ylethynyl)-2,7-naphthyridin-3-yl)cyclopropanecarboxamide], for which, on TYK2 JH2, the Kd was ≤ 100 nM. Also, in experiment [1], the IC50 was ≤ 500 nM.

Take `CNc1ncc(C#Cc2ccc3nc(C)sc3c2)c2cc(NC(=O)C3CC3)ncc12` [Example 628, N-(8-(methylamino)-5-((2-methylbenzo[d]thiazol-6-yl)ethynyl)-2,7-naphthyridin-3-yl)cyclopropanecarboxamide]: the Kd on TYK2 JH2 was ≤ 100 nM. The IC50 in experiment [1] is ≤ 500 nM.

For the compound `CNc1ncc(C#Cc2cccc(OC)c2)c2cc(NC(=O)C3CC3)ncc12` [Example 629, N-(5-((3-methoxyphenyl)ethynyl)-8-(methylamino)-2,7-naphthyridin-3-yl)cyclopropanecarboxamide], the Kd at TYK2 JH2 was ≤ 100 nM. For the same compound, the IC50 in experiment [1] was ≤ 500 nM.

Consider `CNc1ncc(C#Cc2ccccc2OC)c2cc(NC(=O)C3CC3)ncc12` [Example 630, N-(5-((2-methoxyphenyl)ethynyl)-8-(methylamino)-2,7-naphthyridin-3-yl)cyclopropanecarboxamide], for which the Kd at TYK2 JH2 was ≤ 100 nM. In addition, the IC50 in experiment [1] is ≤ 500 nM.

Regarding `CNc1ncc(C#Cc2ccc(OC)nc2)c2cc(NC(=O)C3CC3)ncc12` [Example 631, N-(5-((6-methoxypyridin-3-yl)ethynyl)-8-(methylamino)-2,7-naphthyridin-3-yl)cyclopropanecarboxamide], the Kd at TYK2 JH2 was ≤ 100 nM. Also, in experiment [1], the IC50 is ≤ 500 nM.

As to `CNc1ncc(C#Cc2cnccn2)c2cc(NC(=O)C3CC3)ncc12` [Example 632, N-(8-(methylamino)-5-(pyrazin-2-ylethynyl)-2,7-naphthyridin-3-yl)cyclopropanecarboxamide], the Kd at TYK2 JH2 is ≤ 100 nM. The IC50 in experiment [1] was ≤ 500 nM.

`CNc1ncc(C#Cc2cnc3ccccn23)c2cc(NC(=O)C3CC3)ncc12` [Example 633, N-(5-(imidazo[1,2-a]pyridin-3-ylethynyl)-8-(methylamino)-2,7-naphthyridin-3-yl)cyclopropanecarboxamide]: at TYK2 JH2, the Kd is ≤ 100 nM. For the same compound, the IC50 in experiment [1] was ≤ 500 nM.

Regarding `CNc1ncc(C#Cc2ccc(OC(C)C)cc2)c2cc(NC(=O)C3CC3)ncc12` [Example 634, N-(5-((4-isopropoxyphenyl)ethynyl)-8-(methylamino)-2,7-naphthyridin-3-yl)cyclopropanecarboxamide], the Kd on TYK2 JH2 is ≤ 100 nM. For the same compound, in experiment [1], the IC50 is ≤ 500 nM.

Take `CNc1ncc(C#Cc2ccc(OC)cc2Cl)c2cc(NC(=O)C3CC3)ncc12` [Example 635, N-(5-((2-chloro-4-methoxyphenyl)ethynyl)-8-(methylamino)-2,7-naphthyridin-3-yl)cyclopropanecarboxamide]: on TYK2 JH2, the Kd is ≤ 100 nM. Moreover, in experiment [1], the IC50 is ≤ 500 nM.
